The values below come from ChEMBL document CHEMBL4350978, “Phytochemical and pharmacological attributes of piperine: A bioactive ingredient of black pepper” (2019).

Format in all cases: functional
Assay [1] deals with Escherichia coli. In words: Antibacterial activity against Escherichia coli assessed as diameter of zone of inhibition at 15 ug/disc by disc diffusion method. The following applies: read-out: DIZ. For orientation: A growth-free zone around the sample is the usual read-out of agar diffusion tests.
Assay [2] has as its system Staphylococcus aureus. Briefly: Antibacterial activity against Staphylococcus aureus assessed as diameter of zone of inhibition at 15 ug/disc by disc diffusion method. The following applies: read-out: DIZ.
Assay [3] relates to Klebsiella pneumoniae. Briefly: Antibacterial activity against Klebsiella pneumoniae assessed as diameter of zone of inhibition at 15 ug/disc by disc diffusion method. The following applies: read-out: DIZ.
The subject of assay [4] is Proteus vulgaris. In words: Antibacterial activity against Proteus vulgaris assessed as diameter of zone of inhibition at 15 ug/disc by disc diffusion method. As to conditions: read-out: DIZ.
Assay [5] deals with Pseudomonas aeruginosa. Briefly: Antibacterial activity against Pseudomonas aeruginosa assessed as diameter of zone of inhibition at 15 ug/disc by disc diffusion method. As to conditions: read-out: DIZ.
Assay [6] has as its system Escherichia coli. Briefly: Antibacterial activity against Escherichia coli assessed as diameter of zone of inhibition at […] by disc diffusion method.
For assay [7], the system named is Staphylococcus aureus. Briefly: Antibacterial activity against Staphylococcus aureus assessed as diameter of zone of inhibition at […] by disc diffusion method.
For assay [8], the system named is Klebsiella pneumoniae. In words: Antibacterial activity against Klebsiella pneumoniae assessed as diameter of zone of inhibition at […] by disc diffusion method.
Assay [9] has as its system Proteus vulgaris. In words: Antibacterial activity against Proteus vulgaris assessed as diameter of zone of inhibition at […] by disc diffusion method.
Assay [10] relates to Pseudomonas aeruginosa. In words: Antibacterial activity against Pseudomonas aeruginosa assessed as diameter of zone of inhibition at […] by disc diffusion method.
The subject of assay [11] is Candida albicans. Briefly: Antifungal activity against Candida albicans assessed as diameter of zone of inhibition at […] by disc diffusion method.
Assay [12] relates to Escherichia coli. Briefly: Antibacterial activity against Escherichia coli by serial dilution method.
The test system of assay [13] is Staphylococcus aureus. Briefly: Antibacterial activity against Staphylococcus aureus by serial dilution method.
Assay [14] deals with Klebsiella pneumoniae. In words: Antibacterial activity against Klebsiella pneumoniae by serial dilution method.
Assay [15] has as its system Proteus vulgaris. In words: Antibacterial activity against Proteus vulgaris by serial dilution method.
Assay [16] deals with Candida albicans. Briefly: Antifungal activity against Candida albicans by serial dilution method.
In assay [17] the test system is Escherichia coli. In words: Antibacterial activity against Escherichia coli assessed as diameter of zone of inhibition at 10 ug/disc by disc diffusion method. The following applies: read-out: DIZ.
For assay [18], the system named is Staphylococcus aureus. Briefly: Antibacterial activity against Staphylococcus aureus assessed as diameter of zone of inhibition at 10 ug/disc by disc diffusion method. The following applies: read-out: DIZ.
Assay [19] deals with Klebsiella pneumoniae. Briefly: Antibacterial activity against Klebsiella pneumoniae assessed as diameter of zone of inhibition at 10 ug/disc by disc diffusion method. The following applies: read-out: DIZ.
Assay [20] deals with Proteus vulgaris. Briefly: Antibacterial activity against Proteus vulgaris assessed as diameter of zone of inhibition at 10 ug/disc by disc diffusion method. As to conditions: read-out: DIZ.
For assay [21], the system named is Pseudomonas aeruginosa. Briefly: Antibacterial activity against Pseudomonas aeruginosa assessed as diameter of zone of inhibition at 10 ug/disc by disc diffusion method. The following applies: read-out: DIZ.

Values after ≈ are worked out from the molar mass of the structure shown.

In the case of `CC[C@H]1OC(=O)[C@H](C)[C@@H](O[C@H]2C[C@@](C)(OC)[C@@H](O)[C@H](C)O2)[C@H](C)[C@@H](O[C@@H]2O[C@H](C)C[C@H](N(C)C)[C@H]2O)[C@](C)(O)C[C@@H](C)C(=O)[C@H](C)[C@@H](O)[C@]1(C)O` [ERYTHROMYCIN], the zone of inhibition at 15 µg/disc in assay [1] is 15 mm; in [2] it was 24 mm; in assay [3], 10 mm; in [4], 6 mm; in [5], 18 mm.

One may read the MIC as the smallest concentration in the dilution series that meets the test's criterion for growth inhibition. Consider `O=C(/C=C/C=C/c1ccc2c(c1)OCO2)N1CCCCC1` [PIPERINE], for which the “diameter of the inhibition zone (DIZ)” value was 20 mm in [6]; 12 mm in [7]; 15 mm in assay [8]; 17 mm in assay [9]; 8 mm in assay [10]; 23 mm in [11]. Also, the MIC came out at 6250 µg/mL (≈ 21.9 mM) in assay [12]; 50 mg/mL (≈ 175 mM) in assay [13]; 25 mg/mL (≈ 87.6 mM) in assay [14]; 12.5 mg/mL (≈ 43.8 mM) in assay [15]; 3120 µg/mL (≈ 11 mM) in assay [16].

Consider `CN[C@@H]1[C@H](O[C@H]2[C@H](O[C@H]3[C@H](O)[C@@H](O)[C@H](N=C(N)N)[C@@H](O)[C@@H]3N=C(N)N)O[C@@H](C)[C@]2(O)C=O)O[C@@H](CO)[C@H](O)[C@H]1O` [STREPTOMYCIN], for which the zone of inhibition at 10 µg/disc in assay [17] was 13.5 mm; in assay [18] it was 23 mm; in assay [19] it was 20 mm; in assay [20], 10 mm; in assay [21] it was 22 mm.
